Test results published in patent US4608381A, “Antiinflammatory 2-(trifluoroethylsulfonyl)benzimidazoles” (Boehringer Ingelheim Pharmaceuticals, Inc., priority 1985, dated 1986).

How the values were obtained:
male CD rats = assay: Adjuvant-Induced Developing Arthritis Assay; type: in vivo; conditions: Rattus norvegicus, po, 336 h, 14 days from adjuvant injection, non-injected hind paw volume; for inhibition in vivo at 25 mg/kg: 25 mg/kg orally once daily; for inhibition in vivo at 50 mg/kg: 50 mg/kg orally once daily
From the text: This assay is used to determine the ability of compounds to affect the immunological processes involved in the induction and development of arthritis and represents a standard model for which there is good correlation with human efficacy. It is described and discussed in Newbould, B. B., Chemotherapy of Arthritis Induced in Rats by Mycobacterial Adjuvant., Brit. J. Pharmacol. 21:127-136 (1963) and Federation Proceedings, Models Used for the Study and Therapy of Rheumatoid Arthritis - Symposium of the American Society for Pharmacology and Experimental Therapeutics, Vol. 32, No. 2 (1973). The procedural details and results observed in the experiments reported here are as follows.
(§1) Polyarthritis is induced in male CD rats (150-170 g) as follows. Heat-killed Mycobacterium butyricum (0.1 ml of a […] 5 mg/ml adjuvant suspension in light mineral oil) is injected subcutaneously into the plantar surface of the right hind foot of each animal. At least 10 rats are used in each test group. Animals are dosed orally with one of the compounds under assay immediately after adjuvant injection, and once daily for a total of 14 days. Untreated normal and arthritic control groups are used as comparison for test compound effect. Foot volumes are measured 24 hours after the final dose by mercury displacement to the lateral malleolus. Mean displacement volumes and their standard errors are calculated for the non-injected hind paws.
The results are expressed as the percent of the mean displacement volume of the control observed in animals treated with the specified compound at the indicated daily dosage level and are as set forth in Table 1: […]

[1] = system: Rats in which polyarthritis has become established; assay: Adjuvant-Induced Established Arthritis Assay; type: in vivo, rat; conditions: days 14-27, non-injected paw volume
Protocol: as §1
This assay is used to determine the ability of compounds to affect an established chronic inflammatory condition.
Polyarthritis is induced as described in Example 8. Rats in which polyarthritis has become established are selected 14 days after receiving the adjuvant suspension. They are treated daily with oral doses of test compound for 14 days (days 14-27). Foot volumes of the non-injected paws are measured as in 8, 24 hours after the final dose. Untreated arthritic control groups are used as comparison for test compound effect as described in Example 8.

## Cc1cc2nc(S(=O)(=O)CC(F)(F)F)[nH]c2cc1C [Example 6, 5,6-Dimethyl-2-(2,2,2-trifluoroethylsulfonyl)-1H-benzimidazole]
Male CD rats
  inhibition in vivo at 25 mg/kg: 18%

## O=S(=O)(CC(F)(F)F)c1nc2ccccc2[nH]1 [Example 4, 2-(2,2,2-Trifluoroethylsulfonyl)-1H-benzimidazole]
Male CD rats
  inhibition in vivo at 25 mg/kg: 52%
[1]; 50 mg/kg orally daily
  % Inhibition: 45%

## CCc1ccc2[nH]c(S(=O)(=O)CC(F)(F)F)nc2c1 [Example 7, 5-Ethyl-2-(2,2,2-trifluoroethylsulfonyl)-1H-benzimidazole]
Male CD rats
  inhibition in vivo at 25 mg/kg: 34%

## O=S(=O)(CC(F)(F)F)c1nc2cc(Cl)ccc2[nH]1 [Example 2, 5-Chloro-2-(2,2,2-trifluoroethylsulfonyl)-1H-benzimidozole]
Male CD rats
  inhibition in vivo at 25 mg/kg: 28%

## O=S(=O)(CC(F)(F)F)c1nc2cc(F)ccc2[nH]1 [Example 5, 5-Fluoro-2-(2,2,2-trifluoroethylsulfonyl)-1H-benzimidazole]
Male CD rats
  inhibition in vivo at 25 mg/kg: 43%

## Cc1ccc2[nH]c(S(=O)(=O)CC(F)(F)F)nc2c1 [Example 1, 5-Methyl-2-(2,2,2-trifluoroethylsulfonyl)-1H-benzimidazole]
Male CD rats
  inhibition in vivo at 25 mg/kg: 52%
  inhibition in vivo at 50 mg/kg: 72%
[1]; 50 mg/kg orally daily
  % Inhibition: 30%
[1]; 75 mg/kg orally daily
  % Inhibition: 42%
[1]; 100 mg/kg orally daily
  % Inhibition: 60%

## Cc1cc2nc(S(=O)(=O)CC(F)(F)F)[nH]c2cc1F [Example 8, 6-Fluoro-5-methYl-2-(2,2,2-trifluoroethylsulfonyl)-1H-benzimidazole]
Male CD rats
  inhibition in vivo at 50 mg/kg: 64%

## O=S(=O)(CC(F)(F)F)c1nc2cc(Cl)c(Cl)cc2[nH]1 [Example 3, 5,6-Dichloro-2-(2,2,2-trifluoroethylsulfonyl)-1H-benzimidazole]
Male CD rats
  inhibition in vivo at 25 mg/kg: 24%
